Like-named read-outs stand apart in the source and are kept apart here. Residues, ends and D or L forms follow the SMILES beside them. *: point of attachment. Cbz = O=C(OCc1ccccc1)*
Key:
CYLD [1] = test: NTHi-induced up-regulation of CYLD in epithelial cells (Q-PCR, Western blot); format: cell-based, human; conditions: for NTHi-induced up-regulation of CYLD at both mRNA and protein levels: HMEEC, A549 and primary NHBE cells, conventional and air-liquid-interface culture
From the text: (§1) Phosphodiesterases (PDEs) have been recognized as therapeutic targets. […] For this reason, we initially sought to determine if PDEs act as key negative regulator for CYLD.

lung fibrosis = test: S. pneumoniae-induced lung fibrosis in Cyld−/− mice (H&E, Masson's trichrome); format: in vivo, mouse
Procedure: Cyld−/− mice were generated by homologous recombination as follows. The targeting construct was designed to disrupt the exons 2 and 3 with an IRES-LacZ/MC1-Neo cassette. The targeting plasmid was linearized and transfected into embryonic stem cells of a 129/S. Homologously recombined embryonic stem cells were injected into blastocysts that were subsequently transferred to foster mothers, to generate chimeric progeny. Generated chimeric progeny were backcrossed to C57BL/6J, and germline transmission was confirmed by PCR with tail DNA. Homozygous knockout of Cyld gene was confirmed by mRNA detection by RT-PCR and CYLD protein detection by western blot analysis in MEF cells and lung tissues. For S. pneumoniae-induced severe infections in WT and Cyld−/− mice, anaesthetized mice were intratracheally (i.t.) inoculated with live S. pneumoniae (5×10^7 CFU per mouse). Surviving mice from severe pneumonia were then sacrificed 2 weeks post S. pneumoniae infection for histopathological analysis. For TGF-β inoculation, anesthetized WT and Cyld−/− mice were i.t. inoculated with TGF-β (25-100 ng per mouse) for 6 hours, and lung tissues were then subjected to total mRNA and protein extraction. […]

PAI-1 = test: TGF-β-induced PAI-1 expression (promoter activity, mRNA) in human cells; format: cell-based; conditions: WT-CYLD-transfected cells pre-treated with MG-132; mRNA
Procedure: Total RNA was isolated using TRIzol reagent following the manufacturer's instructions. Synthesis of complementary DNA from total RNA was performed with MultiScribe reverse transcriptase. Real-time quantitative PCR was performed using an ABI 7500 Sequence Detection System (Applied Biosystems). Relative quantities of mRNAs were calculated using the comparative threshold cycle method and normalized using human and mouse glyceraldehyde-3-phosphate dehydrogenase as an endogenous control. The primer sequences for mouse COL1A2, COL3A1, CTGF and PAI-1, and human PAI-1, CHIP, and Smad3 are as follows. Mouse CTGF: 5′-[…]-3′ (SEQ ID NO:1) and 5′-[…]-3′ (SEQ ID NO:2); mouse COL1A2: 5′-[…]-3′ (SEQ ID NO:3) and 5′-[…]-3′ (SEQ ID NO:4); mouse COL3A1: 5′-[…]-3′ (SEQ ID NO:5) and 5′-[…]-3′ (SEQ ID NO:6); mouse PAI-1: 5′-[…]-3′ (SEQ ID NO:7) and 5′-[…]-3′ (SEQ ID NO:8); human PAI-1: 5′-[…]-3′ (SEQ ID NO:9) and 5′-[…]-3′ (SEQ ID NO:10); human CHIP: 5′-[…]-3′ (SEQ ID NO:11) and 5′-[…]-3′ (SEQ ID NO:12).
(§2) The expression plasmids Flag-WT-CYLD, HA-WT-CYLD, Flag-H/N-CYLD, HA-C/S-CYLD, Flag-WT-Smad3, C/A-TβRI, and the reporter plasmids SBE-Luc, PAI-1-Luc, and NF-κB-Luc were previously described. Flag-WT-Akt1, pRK5-HA-Ub WT, pRK5-HA-Ub K63, and pRK5-HA-Ub K48 were from Addgene, and K to R mutants of Akt were generated with WT-Akt1 using QuickChange XL Site-Directed Mutagenesis kit (Stratagene). All transient transfections were carried out using TransIT-LT1 reagent (Minis) or Lipofectamine (Invitrogen) according to manufacturers' instructions.

Smad3 [2] = test: Smad3 protein level in transfected cells by immunoblotting; format: cell-based, human
Procedure: Western blot, immunoprecipitation and ubiquitination experiments were performed as follows. Western blots were performed using whole-cell extracts, separated on 8 or 10% SDS-PAGE gels, and transferred to polyvinylidine di& uoride membranes. The membrane was blocked with a solution of PBS containing 0.1% Tween 20 (PBS-T) and 5% BSA. The membrane was then incubated in a 1:2,000 dilution of a primary antibody in 5% BSA-PBS-T. After three washes in PBS-T, the membrane was incubated with 1:5,000 dilution of the corresponding secondary antibody in 3% non-fact skim milk-PBS-T. Respective proteins were visualized by using enhanced chemiluminescence detection reagents, according to the manufacturer's instructions. To conduct immunoprecipitation analysis, cell lysates were incubated with 1 μg of primary antibodies overnight, at 4° C., followed by 2-h incubation with protein A/G-agarose beads (Invitrogen). Immunoprecipitates were then suspended in a sample buffer, separated on 8% SDS-PAGE, transferred to polyvinylidine difluoride membrane, and detected by immunoblot analysis, as described above. […]

TGF-β-signalling = test: TGF-β-induced SBE-promoter activity in mouse MEF cells; format: cell-based; conditions: Cyld−/− MEFs pretreated with inhibitor
Procedure: as §2

Smad3 [3] = test: Smad3 protein expression in cells incubated with Akt or PI3K inhibitor (immunoblotting); format: cell-based, mouse; conditions: 20 μM; MEF cells from Cyld+/+ and Cyld−/− mice (FIG. 5d), cells (FIG. 5e)
Procedure: FIG. 5 illustrates that CYLD decreases Smad3 stability by inhibiting Akt. (a) MEF cells from Cyld+/+ and Cyld−/− mice were transfected with siCon or siAkt1/2 and analysed by immunoblotting with the indicated antibodies. (b) SBE-promoter activity was determined in siCYLD-transfected A549 cells with or without siAkt co-transfection and stimulated with TGF-β. (c) SBE-promoter activity was determined in MEFs from Cyld+/+ and Cyld−/− mice pretreated with Akt inhibitor and stimulated with TGF-β. (d) MEF cells from Cyld+/+ and Cyld−/− mice were incubated with Akt inhibitor (20 μM), and cell lysates were analysed by immunoblotting with the indicated antibodies. (e) Cells were incubated with Akt inhibitor (20 μM) or LY294002 (20 μM), and cell lysates were analysed by immunoblotting with the indicated antibodies. (f) Lysates from cells transfected with HA-CYLD and Flag-Akt were immunoprecipitated with anti-CYLD antibody (upper panel) or anti-Akt antibody (lower panel), and interacting proteins were analysed by immunoblotting. […]
Western blot, immunoprecipitation and ubiquitination experiments were performed as follows. […] Immunoprecipitates were then suspended in a sample buffer, separated on 8% SDS-PAGE, transferred to polyvinylidine difluoride membrane, and detected by immunoblot analysis, as described above. […]

[4] = tested on: NTHi-induced inflammation; test: NTHi-induced inflammation in epithelial cells (NF-κB activation, IL-1β, IL-8, TNF-α; Q-PCR, ELISA); format: cell-based, human; conditions: for concentration at which NTHi-induced inflammatory response was suppressed / NTHi-induced inflammatory response: HMEEC cell; for NTHi-induced inflammatory response: roflumilast at 1 μM
From the text: We next determined if PDE4 inhibition suppresses NTHi-induced inflammation. […] Despite showing that inhibiting PDE4 enhanced up-regulation of CYLD and suppressed NTHi-induced inflammation, it was still unclear whether inhibiting PDE4 suppressed inflammation by up-regulating CYLD or by inhibiting a positive regulator of inflammation (e.g., IKKβ).

PDE4B / PDE4D = conditions: known property, cited from earlier work
NF-κB = NF-κB activation induced by overexpressing constitutively active IKKβ or wild-type p65; format: cell-based
From the text: We next determined if PDE4 inhibitors may also suppress inflammation via directly inhibiting IKKβ, the key positive regulator of NF-κB-dependent inflammation.

[5] = tested on: NTHi-induced inflammation; test: NTHi-induced middle ear inflammation in mouse OM model (cytokines, otoscopy, histopathology); format: in vivo
CYLD [6] = test: CYLD up-regulation in the middle ear of mouse OM model (Q-PCR, IF staining); format: in vivo
From the text: as §1
Ototopical administration works effectively when the eardrum is perforated either pathologically or surgically by tympanostomy tube insertion. Thus, we first determined if ototopical administration of rolipram up-regulates CYLD and suppresses inflammation in the middle ear of mice post NTHi inoculation.

[7] = ototopical pre- and post-inoculation administration, mouse OM model

With CCCCOc1cc(CC2CNC(=O)N2)ccc1OC (centres unmarked) [Ro20-1724] the “NTHi-induced up-regulation of CYLD at both mRNA and protein levels” value (CYLD [1]) was “markedly enhanced”.

For NC(=O)c1ccc(-c2nc(-c3ccccn3)c(-c3ccc4c(c3)OCO4)[nH]2)cc1 [SB431542], the “lung fibrosis in S. pneumoniae-inoculated Cyld−/− lungs” value (lung fibrosis; 10 mg per kg body weight intraperitoneal, 2-weeks post infection) was “inhibited”.

With C[S+]([O-])c1ccc(-c2nc(-c3ccc(F)cc3)c(-c3ccncc3)[nH]2)cc1 (centres unmarked) [SB203580] the “lung fibrosis in Cyld−/− mice” value (lung fibrosis; S. pneumoniae infection, 20 mg kg−1 intraperitoneal 1-2 hours before inoculation) was “did not affect”.

In the case of CC(C)C[C@@H](C=O)NC(=O)[C@H](CC(C)C)NC(=O)[C@H](CC(C)C)NC(=O)OCc1ccccc1 [MG132] (Cbz-Leu-Leu-Leu-aldehyde), the “WT-CYLD-induced decrease in TGF-β-induced PAI-1 expression” value (PAI-1) is reported as “reversed” and the “WT-CYLD-induced decrease in Smad3 protein level” value (Smad3 [2]; WT-CYLD-transfected cells, 20 μM) is reported as “reversed”.

With CCCCCCCCCCCCCCCCCCOCC(COC(=O)OC1C(O)C(O)C(O)C(CO)C1O)OC [Akt inhibitor, 1L6-Hydroxymethyl-chiro-inositol-2(R)-2-O-methyl-3-O-octadecyl-sn-glycerocarbonate] the “enhanced TGF-β-induced SBE promoter activity” value (TGF-β-signalling) was “inhibited” and the Smad3 protein expression (Smad3 [3]) was “markedly reduced”.

With Cn1cc(C2=C(c3ccc(Cl)cc3Cl)C(=O)NC2=O)c2ccccc21 [SB216763] the “WT-CYLD-induced Smad3 decrease” value (Smad3 [2]; A549 cells, 5 μM for 12 h) was “reversed”.

For O=C(Nc1c(Cl)cncc1Cl)c1ccc(OC(F)F)c(OCC2CC2)c1 [roflumilast], the “concentration at which NTHi-induced inflammatory response was suppressed” value [4] is listed as 1 µM, the NTHi-induced inflammatory response [4] is listed as “markedly suppressed” and the “PDE4 subfamily selectivity (PDE4B versus PDE4D)” value (“PDE4 subfamily selectivity” for short) (PDE4B / PDE4D) is listed as “more selective for PDE4B than for PDE4D”. The “PDE4 subfamily selectivity” value (PDE4B / PDE4D; listed as Roflumilast) was “more specific inhibitor for PDE4B” and the CYLD expression (CYLD [1]) was “enhanced”.

For COc1ccc([C@]2(C#N)CC[C@@H](C(=O)O)CC2)cc1OC1CCCC1 [cilomilast], the NTHi-induced inflammatory response [4] is listed as “no significant inhibitory effect” and the “PDE4 subfamily selectivity” value (PDE4B / PDE4D) is listed as “more PDE4D selective”.

In the case of COc1ccc(C2CNC(=O)C2)cc1OC1CCCC1 (centres unmarked) [rolipram], the “activation of NF-κB induced by overexpressing constitutively active IKKβ or wild-type p65” value (NF-κB) is reported as “did not significantly inhibit”, the “NTHi-induced mRNA expression of these cytokines in CYLD-deficient cells” value ([4]; CYLD-deficient cells) is reported as “failed to inhibit” and the “concentration at which NTHi-induced inflammatory response was suppressed” value [4] is reported as 10 µM. The “NTHi-induced NF-κB activation” value ([4]; HMEEC, A549, primary NHBE cells) was “potently inhibited”, the “NTHi-induced up-regulation of IL-1β, IL-8 and TNF-α in CYLD-depleted cells” value ([4]; HMEEC, A549, primary NHBE cells, CYLD depleted with siRNA CYLD) was “no longer inhibited” and the “NTHi-induced up-regulation of pro-inflammatory mediators IL-1β, IL-8 and TNF-α at the mRNA and protein levels” value ([4]; HMEEC, A549, primary NHBE cells, Q-PCR and ELISA) was “potently inhibited”. The “NTHi-induced otoscopic pathological changes of OM (congestion and swelling of tympanic membranes, mucous effusion)” value ([5]; i.p. administration, NTHi-inoculated mice, otoscopic examination) was “inhibited”, the “middle ear mucosal thickening and PMN infiltration in the middle ear mucosa” value ([5]; i.p. administration, histopathologic analysis) was “inhibited” and the “NTHi-induced up-regulation of IL-1β and MIP-2, middle ear mucosal thickening and PMN infiltration” value ([5]; i.p. administration, mouse OM model, CYLD-deficiency context) was “no longer inhibited”. For the same molecule, the “NTHi-induced up-regulation of the proinflammatory mediators in the middle ear of mouse” value ([5]; mouse) was “inhibited”, the middle ear inflammation [5, 7] was “suppressed” and the “up-regulation of CYLD at the mRNA level and protein level in the middle ear mucosa” value (CYLD [6]; mouse model of OM, Q-PCR and IF staining) was “enhanced”. The “CYLD expression in the middle ear” value (CYLD [6]; [7]) was “up-regulated” and the “NTHi-induced up-regulation of CYLD at both mRNA and protein levels” value (CYLD [1]) was “markedly enhanced”.

Reference: patent publication US9951335B2, “Compositions and methods for treating otitis media and other conditions with inhibitors of CYLD” (Georgia State University Research Foundation, Inc., priority 2012, dated 2018)
